In patent publication US12077555B2, “STAT degraders and uses thereof” (Kymera Therapeutics, Inc., priority 2019, dated 2024):

Target: STAT3 (Homo sapiens, UniProt P40763)
Test: STAT3 HiBiT degradation assay in transfected A549 cells
Assay type: cell-based
Design: expressed in transfected cells; host or cells: A549
Settings: A549, 24 h; read-out: STAT3 HiBiT A549 degradation 24 h: Average external-Abs DC50
Outline: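 Transfected A549 cells (~2000/well) plated 24 h, then treated 24 h at 37 °C, 5% CO2 with a 3-fold, 10-point compound dilution. HiBiT lytic luminescence read after 10 min at room temperature; remaining STAT3 normalized to negative and positive controls, four-parameter fit. DC50 binned A <0.01, B 0.01–0.1, C 0.1–1.0, D >1.0 µM.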

STAT3, sequence (P40763 whole entry): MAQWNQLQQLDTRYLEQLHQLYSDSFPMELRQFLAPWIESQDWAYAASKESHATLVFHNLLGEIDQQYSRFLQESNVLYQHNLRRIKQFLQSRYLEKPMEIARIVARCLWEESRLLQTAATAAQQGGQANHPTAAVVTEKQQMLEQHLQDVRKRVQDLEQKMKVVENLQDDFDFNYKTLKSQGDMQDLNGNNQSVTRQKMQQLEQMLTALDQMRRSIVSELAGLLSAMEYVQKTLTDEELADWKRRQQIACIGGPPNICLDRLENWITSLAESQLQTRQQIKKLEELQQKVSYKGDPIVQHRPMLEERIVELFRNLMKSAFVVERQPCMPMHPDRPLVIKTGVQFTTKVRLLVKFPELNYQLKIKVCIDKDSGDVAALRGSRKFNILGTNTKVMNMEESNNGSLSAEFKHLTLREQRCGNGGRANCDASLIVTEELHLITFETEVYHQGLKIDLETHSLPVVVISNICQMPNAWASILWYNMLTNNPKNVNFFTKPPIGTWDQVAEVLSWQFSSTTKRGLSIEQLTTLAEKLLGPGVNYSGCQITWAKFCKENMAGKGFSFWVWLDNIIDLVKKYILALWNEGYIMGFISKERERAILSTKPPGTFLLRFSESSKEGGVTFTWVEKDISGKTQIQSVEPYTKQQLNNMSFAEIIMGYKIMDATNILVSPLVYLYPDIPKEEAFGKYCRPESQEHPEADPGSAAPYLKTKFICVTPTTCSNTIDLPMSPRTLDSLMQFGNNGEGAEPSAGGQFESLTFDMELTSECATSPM

| SMILES | DC50 |
| --- | --- |
| Cc1ncsc1-c1ccc([C@H](C)NC(=O)[C@@H]2C[C@@H](O)CN2C(=O)[C@@H](NC(=O)CCCCCc2cc(Cl)cc(OC[C@H](CCC(N)=O)NC(=O)[C@@H]3Cc4cccc5c4N3C(=O)[C@@H](NC(=O)c3cc4cc(C(=O)P(=O)(O)O)ccc4[nH]3)CC5)c2F)C(C)(C)C)cc1 [Compound I-244, 2-[[(2S,11S)-2-[[(2S)-4-carbamoyl-1-[5-chloro-2-fluoro-3-(5-[[(2S)-1-[(2S,4R)-4-hydroxy-2-[[(1S)-1-[4-(4-methyl-1,3-thiazol-5-yl)phenyl]ethyl]carbamoyl]pyrrolidin-1-yl]-3,3-dimethyl-1-oxobutan-2-yl]carbamoyl]pentyl)phenoxy]butan-2-yl]carbamoyl]-12-oxo-1-azatricyclo[6.4.1.0^[4,13]]trideca-4(13),5,7-trien-11-yl]carbamoyl]-1H-indole-5-carbonylphosphonic acid] | < 10 nM |
| Cn1c(=O)n(C2CCC(=O)NC2=O)c2ccc(CC3CCC(Cc4cc5c6c(c4)C[C@@H](C(=O)N[C@@H](CCC(N)=O)C(=O)NC(c4ccccc4)c4ccccc4)N6C(=O)[C@@H](NC(=O)c4cc6cc(C(=O)P(=O)(O)O)ccc6[nH]4)CC5)CC3)cc21 (stereo partly drawn) [Compound I-245, 2-[[(2S,11S)-2-[[(1S)-3-carbamoyl-1-(diphenylmethylcarbamoyl)propyl]carbamoyl]-6-[(4-[[1-(2,6-dioxopiperidin-3-yl)-3-methyl-2-oxo-1,3-benzodiazol-5-yl]methyl]cyclohexyl)methyl]-12-oxo-1-azatricyclo[6.4.1.0^[4,13]]trideca-4(13),5,7-trien-11-yl]carbamoyl]-1H-indole-5-carbonylphosphonic acid] | 100 to 1000 nM |
| Cc1ncsc1-c1ccc([C@H](C)NC(=O)[C@@H]2C[C@@H](O)CN2C(=O)[C@@H](NC(=O)CCCCc2cccc(NC(=O)C(CCC(N)=O)NC(=O)[C@@H]3Cc4cccc5c4N3C(=O)[C@@H](NC(=O)c3cc4cc(C(=O)P(=O)(O)O)ccc4[nH]3)CC5)c2Cl)C(C)(C)C)cc1 (stereo partly drawn) [Compound I-246, diammonium 2-[[(2S,11S)-2-[(3-carbamoyl-1-[[2-chloro-3-(4-[[(2S)-1-[(2S,4R)-4-hydroxy-2-[[(1S)-1-[4-(4-methyl-1,3-thiazol-5-yl)phenyl]ethyl]carbamoyl]pyrrolidin-1-yl]-3,3-dimethyl-1-oxobutan-2-yl]carbamoyl]butyl)phenyl]carbamoyl]propyl)carbamoyl]-12-oxo-1-azatricyclo[6.4.1.0^[4,13]]trideca-4(13),5,7-trien-11-yl]carbamoyl]-1H-indole-5-carbonylphosphonate] | 10 to 100 nM |
| Cc1ncsc1-c1ccc([C@H](C)NC(=O)[C@@H]2C[C@@H](O)CN2C(=O)[C@@H](NC(=O)CCCc2cccc(NC(=O)[C@H](CCC(N)=O)NC(=O)[C@@H]3Cc4cccc5c4N3C(=O)[C@@H](NC(=O)c3cc4cc(C(=O)P(=O)(O)O)ccc4[nH]3)CC5)c2Cl)C(C)(C)C)cc1 [Compound I-247, diammonium 2-[[(2S,11S)-2-[[(1S)-3-carbamoyl-1-[[2-chloro-3-(3-[[(2S)-1-[(2S,4R)-4-hydroxy-2-[[(1S)-1-[4-(4-methyl-1,3-thiazol-5-yl)phenyl]ethyl]carbamoyl]pyrrolidin-1-yl]-3,3-dimethyl-1-oxobutan-2-yl]carbamoyl]propyl)phenyl]carbamoyl]propyl]carbamoyl]-12-oxo-1-azatricyclo[6.4.1.0^[4,13]]trideca-4(13),5,7-trien-11-yl]carbamoyl]-1H-indole-5-carbonylphosphonate] | 10 to 100 nM |
| Cc1ncsc1-c1ccc([C@H](C)NC(=O)[C@@H]2C[C@@H](O)CN2C(=O)[C@@H](NC(=O)CCCc2cccc(NC(=O)[C@H](CCC(N)=O)NC(=O)[C@@H]3Cc4cccc5c4N3C(=O)[C@@H](NC(=O)c3cc4cc(C(=O)P(=O)(O)O)ccc4[nH]3)CC5)c2)C(C)(C)C)cc1 [Compound I-248] | 10 to 100 nM |
| Cc1ncsc1-c1ccc([C@H](C)NC(=O)[C@@H]2C[C@@H](O)CN2C(=O)[C@@H](NC(=O)CCCCCc2cccc(NC(=O)[C@H](CCC(N)=O)NC(=O)[C@@H]3Cc4cccc5c4N3C(=O)[C@@H](NC(=O)c3cc4cc(C(=O)P(=O)(O)O)ccc4[nH]3)CC5)c2Cl)C(C)(C)C)cc1 [Compound I-249, 2-[[(2S,11S)-2-[[(1S)-3-carbamoyl-1-[[2-chloro-3-(5-[[(2S)-1-[(2S,4R)-4-hydroxy-2-[[(1S)-1-[4-(4-methyl-1,3-thiazol-5-yl)phenyl]ethyl]carbamoyl]pyrrolidin-1-yl]-3,3-dimethyl-1-oxobutan-2-yl]carbamoyl]pentyl)phenyl]carbamoyl]propyl]carbamoyl]-12-oxo-1-azatricyclo[6.4.1.0^[4,13]]trideca-4(13),5,7-trien-11-yl]carbamoyl]-1H-indole-5-carbonylphosphonic acid] | 10 to 100 nM |
| Cc1ncsc1-c1ccc([C@H](C)NC(=O)[C@@H]2C[C@@H](O)CN2C(=O)[C@@H](NC(=O)CCCCCc2cccc(NC(=O)[C@H](CCC(N)=O)NC(=O)[C@@H]3Cc4cccc5c4N3C(=O)[C@@H](NC(=O)c3cc4cc(C(=O)P(=O)(O)O)ccc4[nH]3)CC5)c2F)C(C)(C)C)cc1 [Compound I-250, 2-[[(2S,11S)-2-[[(1S)-3-carbamoyl-1-[[2-fluoro-3-(5-[[(2S)-1-[(2S,4R)-4-hydroxy-2-[[(1S)-1-[4-(4-methyl-1,3-thiazol-5-yl)phenyl]ethyl]carbamoyl]pyrrolidin-1-yl]-3,3-dimethyl-1-oxobutan-2-yl]carbamoyl]pentyl)phenyl]carbamoyl]propyl]carbamoyl]-12-oxo-1-azatricyclo[6.4.1.0^[4,13]]trideca-4(13),5,7-trien-11-yl]carbamoyl]-1H-indole-5-carbonylphosphonic acid] | 10 to 100 nM |
| Cc1ccc(OC[C@H](CCC(N)=O)NC(=O)[C@@H]2Cc3cccc4c3N2C(=O)[C@@H](NC(=O)c2cc3cc(C(=O)P(=O)(O)O)ccc3[nH]2)CC4)c(F)c1CCCCCC(=O)N[C@H](C(=O)N1C[C@H](O)C[C@H]1C(=O)N[C@@H](C)c1ccc(-c2scnc2C)cc1)C(C)(C)C [Compound I-251] | < 10 nM |
| Cc1ncsc1-c1ccc([C@H](C)NC(=O)[C@@H]2C[C@@H](O)CN2C(=O)[C@@H](NC(=O)CCCCCc2c(F)ccc(OC[C@H](CCC(N)=O)NC(=O)[C@@H]3Cc4cccc5c4N3C(=O)[C@@H](NC(=O)c3cc4cc(C(=O)P(=O)(O)O)ccc4[nH]3)CC5)c2F)C(C)(C)C)cc1 [Compound I-252] | < 10 nM |
| Cc1ncsc1-c1ccc([C@H](C)NC(=O)[C@@H]2C[C@@H](O)CN2C(=O)[C@@H](NC(=O)CCCc2cccc(OC[C@H](CCC(N)=O)NC(=O)[C@@H]3Cc4cccc5c4N3C(=O)[C@@H](NC(=O)c3cc4cc(C(=O)P(=O)(O)O)ccc4[nH]3)CC5)c2Cl)C(C)(C)C)cc1 [Compound I-253] | < 10 nM |
| Cc1ncsc1-c1ccc([C@H](C)NC(=O)[C@@H]2C[C@@H](O)CC2C(=O)[C@@H](NC(=O)OCCCCc2cccc(N(C)CC(CCC(N)=O)NC(=O)[C@@H]3Cc4cccc5c4N3C(=O)[C@@H](NC(=O)c3cc4cc(C(=O)P(=O)(O)O)ccc4[nH]3)CC5)c2F)C(C)(C)C)cc1 (some centres unmarked) [Compound I-254] | 100 to 1000 nM |
| Cc1ncsc1-c1ccc([C@H](C)NC(=O)[C@@H]2C[C@@H](O)CN2C(=O)[C@@H](NC(=O)Cc2cccc(OC[C@H](CCC(N)=O)NC(=O)[C@@H]3Cc4cccc5c4N3C(=O)[C@@H](NC(=O)c3cc4cc(C(=O)P(=O)(O)O)ccc4[nH]3)CC5)c2)C(C)(C)C)cc1 [Compound I-256, 2-[[(2S,11S)-2-[[(2S)-4-carbamoyl-1-[3-([[(2S)-1-[(2S,4R)-4-hydroxy-2-[[(1S)-1-[4-(4-methyl-1,3-thiazol-5-yl)phenyl]ethyl]carbamoyl]pyrrolidin-1-yl]-3,3-dimethyl-1-oxobutan-2-yl]carbamoyl]methyl)phenoxy]butan-2-yl]carbamoyl]-12-oxo-1-azatricyclo[6.4.1.0^[4,13]]trideca-4(13),5,7-trien-11-yl]carbamoyl]-1H-indole-5-carbonylphosphonic acid] | > 1000 nM |
| Cc1ncsc1-c1ccc([C@H](C)NC(=O)[C@@H]2C[C@@H](O)CN2C(=O)[C@@H](NC(=O)CCCCCc2cc(Cl)cc(NC(=O)[C@H](CCC(N)=O)NC(=O)[C@@H]3Cc4cccc5c4N3C(=O)[C@@H](NC(=O)c3cc4cc(C(=O)P(=O)(O)O)ccc4[nH]3)CC5)c2)C(C)(C)C)cc1 [Compound I-257, 2-[[(2S,11S)-2-[[(1S)-3-carbamoyl-1-[[3-chloro-5-(5[[(2S)-1-[(2S,4R)-4-hydroxy-2-[[(1S)-1-[4-(4-methyl-1,3-thiazol-5-yl)phenyl]ethyl]carbamoyl]pyrrolidin-1-yl]-3,3-dimethyl-1-oxobutan-2-yl]carbamoyl]pentyl)phenyl]carbamoyl]propyl]carbamoyl]-12-oxo-1-azatricyclo[6.4.1.0^[4,13]]trideca-4(13),5,7-trien-11-yl]carbamoyl]-1H-indole-5-carbonylphosphonic acid] | 10 to 100 nM |

Same assay, conditions: read-out: STAT3 HiBiT A549 degradation 24 h: Average external-Abs DC50; A549, 24 h

| SMILES | DC50 |
| --- | --- |
| Cn1c(=O)n(C(CCC(N)=O)C(=O)O)c2ccc(C[C@H]3CC[C@@H](CC(=O)N4CC[C@H]5CC[C@@H](C(=O)N[C@@H](CCC(N)=O)C(=O)NC(c6ccccc6)c6ccccc6)N5C(=O)[C@@H](NC(=O)c5cc6cc(C(=O)P(=O)(O)O)ccc6[nH]5)C4)CC3)cc21 (stereo partly drawn) [Compound I-255, 4-carbamoyl-2-(3-methyl-2-oxo-5-[[(1s,4s)-4-[2-[(5S,8S,10aR)-8-[[(1S)-3-carbamoyl-1-(diphenylmethylcarbamoyl)propyl]carbamoyl]-6-oxo-5-[5-(phosphonocarbonyl)-1H-indole-2-amido]-octahydropyrrolo[1,2-a][1,5]diazocin-3-yl]-2-oxoethyl]cyclohexyl]methyl]-1,3-benzodiazol-1-yl)butanoic acid] | > 1000 nM |
